SMILES strings stand for the structures. Where two headings read alike, the source gives them in different places. Bounds are passed on as bounds.

Data set [1] deals with rat primary cortical cultures. Also noted: method as in Zwartsen et al., 2019. The following applies: value [CI], published previously ref Zwartsen et al., 2019, cited from earlier work.
The target of another data set is T1, hDAT (Homo sapiens, UniProt Q01959).
T1 construct: expressed in transfected cells
On the set-up: method as in Zwartsen et al., 2017. The following applies: read-out: Transporter inhibition IC50, hDAT; HEK 293 cells; value [CI]; reanalyzed from previously published data ref Zwartsen et al., 2017; cited from earlier work.

The subject of data set [2] is rat primary cortical cultures. Nature of the data set: MEA recordings of spontaneous neuronal network activity. It is filed as cell-based. The following applies: acute and prolonged exposure. The procedure:
Rat pups born of timed-pregnant Wistar rats (Envigo, Horst, Netherlands) were sacrificed on postnatal day 0–1 to prepare cortical cultures grown on MEA plates as described previously ([Zwartsen et al., 2018], [2019]). Briefly, a 50 μL drop of cell suspension was added to each well (1 × 10^5 cells/well) of a 48-well MEA plate (Axion BioSystems Inc., Atlanta, GA, United States, M768-GL1-30Pt200) coated with 0.1% polyethyleneimine (PEI). After 2 h, 450 μL dissection medium was added to each well. The day after the isolation (day in vitro 1; DIV1), 450 μL/well dissection medium was replaced with 450 μL/well glutamate medium. At DIV4, 450 μL/well glutamate medium was replaced with 450 μL/well FBS medium (for medium supplements see [Zwartsen et al., 2018], [2019]). Cultures were kept in FBS medium at 37°C, 5% CO2/95% air atmosphere until use at DIV9-10.
Microelectrode array recordings were performed as described in [Zwartsen et al. (2019)]. In short, neuronal activity was measured using a Maestro 768-channel amplifier (Axion BioSystems Inc., Atlanta, GA, United States). Baseline spontaneous neuronal activity was recorded for 30 min at 37°C, after which wells were exposed to selected synthetic cathinones under sterile conditions. Next, neuronal activity was determined during a 30 min “acute exposure” recording. […] Next, exposure medium was replaced with fresh FBS medium and the plate was incubated for 19 h at 37°C, until the 30 min “washout” recording, i.e., 24 h after the start of the exposure.
Effects of 3-MMC, 4-MMC, 4-MEC, pentedrone, 3-MMCinternet, and 4-MECinternet were tested at 1–1000 μM (final concentration). At the day of exposure, stocks and dilutions were freshly made in NB-A FBS medium (for medium supplements see [Zwartsen et al., 2019]). Data on methylone, α-PVP, and MDPV exposure have been published previously in [Zwartsen et al. (2019)]. For each experimental condition, primary cultures from two to three different isolations were used and tested in four to five plates (Nplates). The number of wells (nwells) represents the number of replicates per condition.
Microelectrode array data were analyzed as described in [Zwartsen et al. (2019)]. In short, parameters of interest after acute exposure were expressed as a percentage of the parameters prior to exposure to obtain a treatment ratio for each well (paired comparison; parameterexposure/parameterbaseline as % of control wells). The parameters after prolonged exposure and washout were also expressed as a percentage of the baseline parameters. Next, treatment ratios were grouped per parameter, condition, drug [e.g., mean spike rate (MSR) 10 μM 3-MMC] and exposure scenario (acute, prolonged, or washout).
Outliers (>mean ± 2×SD) for MSR (5.0%) were used to exclude wells on all parameters. Outliers for mean burst rate (MBR; 2.6%) and mean network burst rate (MNBR; 1.4%) were used to exclude wells on specific parameters (burst, network burst, and synchronicity parameters, or network burst and synchronicity parameters, respectively). Finally, the acute, prolonged, and washout control treatment ratios were set to 100% and treatment ratios of exposed wells were normalized to the average treatment ratio of medium control wells of the corresponding parameter and exposure scenario. Treatment ratios of exposed wells were averaged per parameter (e.g., MSR), condition (e.g., 100 μM), drug (e.g., methylone), and exposure scenario (e.g., acute exposure) and used for further statistical analyses [see [Zwartsen et al. (2019)] for more details on criteria, parameters, and exposure scenarios]. Neuronal activity (as % of control) is expressed as mean ± SEM of nwells from Nplates. As the spike, burst, and network burst rates were among the most sensitive parameters, these parameters are presented in the manuscript. Additional parameters are presented in Supplementary Figure 2.
Concentration–response curves were made for transporter, MEA, and cell viability assays. […]

The nature of data set [3]: Brain partitioning factor (BPF). Particulars: brain concentration divided by blood/serum/plasma concentration from human post mortem reports or animal studies (rat/mice). The source says:
(§1) To correlate reported effect concentrations to expected concentrations in the human brain during recreational use a brain partitioning factor (BPF; […]) was applied, as actual human brain concentrations following recreational drug use are unknown. Expected concentrations in the human brain were estimated by multiplying recreational human blood/serum/plasma concentrations with the BPF. Human recreational blood, serum, or plasma levels were obtained from literature (driving under the influence or accidental non-fatal intoxications). The BPF was determined for each drug by dividing the brain concentration by the blood/serum/plasma concentration found in human post mortem reports, or animal studies (rat/mice) when human data were insufficient.

Data set [4] can be described thus: Estimated human brain concentrations and comparison with IC50 values. The following applies: recreational human blood/serum/plasma concentration multiplied with BPF.
Description: as §1
To identify the relevance of effects and potentially harmful drugs, effect concentrations (IC50 values) were related to the estimated human brain concentration during recreational use [(brain), Table 2]. By comparing these concentrations, the most relevant neurotoxic mechanisms of cathinones can be identified. […] Only 4-MEC and MDPV inhibited neuronal activity during acute exposure at concentrations within (MDPV) or close to (4-MEC) the estimated brain concentration.

For data set [5] the following is noted: recreational use (driving under the influence or accidental non-fatal intoxications); ref literature; cited from earlier work.

T1 sequence (Q01959 whole entry): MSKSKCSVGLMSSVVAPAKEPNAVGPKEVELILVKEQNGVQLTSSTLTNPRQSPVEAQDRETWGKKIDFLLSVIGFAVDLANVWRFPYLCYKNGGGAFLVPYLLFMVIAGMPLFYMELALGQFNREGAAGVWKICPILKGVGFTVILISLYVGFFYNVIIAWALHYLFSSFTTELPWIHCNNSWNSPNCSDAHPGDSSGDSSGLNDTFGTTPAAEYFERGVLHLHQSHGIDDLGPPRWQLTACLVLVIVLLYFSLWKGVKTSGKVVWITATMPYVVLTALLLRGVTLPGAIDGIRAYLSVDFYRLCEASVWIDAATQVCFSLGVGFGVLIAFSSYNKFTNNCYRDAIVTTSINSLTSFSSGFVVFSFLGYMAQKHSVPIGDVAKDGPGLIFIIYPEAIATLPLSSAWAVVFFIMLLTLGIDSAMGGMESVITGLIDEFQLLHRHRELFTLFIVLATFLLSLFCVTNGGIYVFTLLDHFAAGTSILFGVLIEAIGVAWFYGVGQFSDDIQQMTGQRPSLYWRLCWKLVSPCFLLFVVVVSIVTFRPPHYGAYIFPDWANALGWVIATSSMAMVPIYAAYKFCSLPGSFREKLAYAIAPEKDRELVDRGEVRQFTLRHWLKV

The IC50 is the concentration that inhibits the measured activity by half. For `CCCC(C(=O)c1ccccc1)N1CCCC1` (stereo not drawn) [α-PVP, α-pyrrolidinovalerophenone], the IC50 in data set [1] (acute exposure 30 min, read-out: Neuronal activity IC50, mean burst rate (MBR), acute) is 33 µM; in data set [1] (acute exposure 30 min, read-out: Neuronal activity IC50, mean network burst rate (MNBR), acute), 33 µM; in data set [1] (acute exposure 30 min, read-out: Neuronal activity IC50, mean spike rate (MSR), acute), 26 µM; in data set [1] (washout, 24 h after start of exposure, read-out: Neuronal activity IC50, mean burst rate (MBR), recovery), above 300 µM; in data set [1] (washout, 24 h after start of exposure, read-out: Neuronal activity IC50, mean network burst rate (MNBR), recovery), above 300 µM; in data set [1] (washout, 24 h after start of exposure, read-out: Neuronal activity IC50, mean spike rate (MSR), recovery) it was above 300 µM. Besides, on hDAT, the IC50 is 0.2 µM. For the same compound, the “Increased potency to inhibit neuronal activity (MSR, MBR, and MNBR) compared to cathinones lacking the lengthened alkyl chain” value in data set [2] is listed as “two to fourfold”. Also, the “Brain partitioning factor (BPF)” value in data set [3] is 0.1–1.8^4,8,9,10. In addition, the “Estimated human (brain) concentration” value in data set [4] was 0.001 to 5.0 µM. Further, the “Human (serum/blood/plasma) concentration” value in data set [5] was 0.01–2.8^b,j,K μM.

The record behind these values is article PMC7000521, “Hazard Characterization of Synthetic Cathinones Using Viability, Monoamine Reuptake, and Neuronal Activity Assays” (Frontiers in Neuroscience, 2020).
